Assay results reported in patent US20240358693A1, “METHODS OF TREATING PAIN” (Aisa Pharma, Inc., priority 2023, published 2024).

Tested on: participants with SSc-RP
Assay: Scleroderma Health Assessment Questionnaire (SHAQ): disability indices and visual analog scales
Type: in vivo, human
Description: The standard, validated, patient reported outcome measures tool for SSc patients, the Scleroderma Health Assessment Questionnaire (SHAQ), will be used to assess the participant qualify of life. Details are attached in the Appendix. The participant quality of life will be scored, and a disability index calculated for each questionnaire completed by the patient at Screening and each in-clinic visit. The absolute change in participant quality of life from baseline to the end of each dosing period will be calculated similar to frequency data as before.
The SHAQ includes a Raynaud's VAS, which will be reported at screening and each in-clinic visit. The absolute change in Raynaud-VAS, assessed by the participants response to the SHAQ question ‘In the past 7 days, how much have your Raynaud's interfered with your daily activities?’ at baseline and the end of each dosing period will be calculated similar to frequency data as before.
The SHAQ is used to calculate a Disability Index to assess the participant qualify of life. The eight categories assessed by the Disability Index are 1) dressing and grooming, 2) arising, 3) eating, 4) walking, 5) hygiene, 6) reach, 7) grip, and 8) common daily activities. For each of these categories, patients report the amount of difficulty they have in performing two or three specific activities.
There are four possible responses for the Disability Index questions: • Without any difficulty=0 • With some difficulty=1 • With much difficulty=2 • Unable to do=3. • The highest score reported by the patient for any component question of the eight categories determines the score for that category. • If a component question is left blank or the response is too ambiguous to assign a score, then the score for that category is determined by the remaining completed question(s). • If all component questions are blank or if more than one answer is given, then follow up with the respondent is required. • If the respondent's mark is between the response columns, then move it to the closest one. If it's directly between the two, move it to the higher one.
Each of the disability items on the SHAQ has a companion aids/devices variable that is used to record what type(s) of assistance, if any, the participant uses for his/her usual activities. These variables (see below) are coded as follows: • 0=No assistance is needed. • 1=A special device is used by the patient in his/her usual activities. • 2=The patient usually needs help from another person. • 3=The patient usually needs BOTH a special device AND help from another person.
The scoring variables and scoring rules permit the computation of two disability indices, the Standard Disability Index and the Alternative Disability Index.
This question results in a new set of category scores that are computed by adjusting the score for each category, if necessary, based on the patient's use of an aid or device or assistance for that category. If either devices and/or help from another person are checked for a category, the score is set to “2”, unless the score is already “3” (i.e., scores of “0” or “1” are increased to “2”). For example, if the highest score for the dressing category is “1”, and the patient says they use a device for dressing, the computed category score would be “2”. The sum of the computed categories scores is then calculated and divided by the number of categories answered. This gives a score in the 0 to 3 range.
The aid and device variables are not used to calculate the alternative disability index; it is calculated by adding the scores for each of the categories and dividing by the number of categories answered. This gives a score in the 0 to 3 range.
The standard, validated, patient reported outcome measures tool for SSc patients, the SHAQ, was collected at the time points specified in the study schedules (FIG. 2 and FIGS. 4A and 4B) to assess the participant's quality of life. The SHAQ included a Raynaud's VAS that will also be reported separately.

[1] = Cilnidipine 20 mg (N = 3), patients with diagnosis of SSc, sensitivity analysis, Modified ITT, Part A
[2] = Cilnidipine 20 mg (n = 3), Table R
[3] = Cilnidipine 20 mg (n = 3), mITT population
[4] = Cilnidipine 20 mg, Day 12, PP Population Part A, SSc patients
[5] = Cilnidipine 20 mg, Day 12, PP Population, Part A
[6] = Cilnidipine 20 mg, PP Population Part A, SSc patients

Compound: COCCOC(=O)C1=C(C)NC(C)=C(C(=O)OC/C=C/c2ccccc2)C1c1cccc([N+](=O)[O-])c1 (centres unmarked) [Cilnidipine, cilnidipine]
- SHAQ Standard Disability Index: Change from Baseline, Median [1]: −0.125
- SHAQ Standard Disability Index: Day 12, Mean [1]: 0.125
- SHAQ Standard Disability Index: Day 12, Median [1]: 0.125
- SHAQ Standard Disability Index: Percent Change from Baseline, Mean [1]: −50.00%
- SHAQ Standard Disability Index: Percent Change from Baseline, Median [1]: −50.00%
- Alternative disability index, improvement [2]: 42% improvement
- Standard disability index, improvement [2]: 50% improvement
- VAS - Breathing problems, improvement [2]: 75% improvement*
- VAS - Raynaud's, improvement [2]: 55% improvement
- VAS Overall Disease Severity, improvement [2]: 63% improvement
- VAS- PAIN, improvement (Cilnidipine 20 mg (n = 3), Table R, baseline 2.17 on a 0-10 VAS): 53% improvement*
- SHAQ % change VAS Raynauds [3]: −49%
- SHAQ % change in Alternative Disability Index [3]: −42%
- SHAQ % change in Pain [3]: −53%
- SHAQ % change in Standard Disability Index [3]: −50%
- SHAQ % change overall SSc Disease Severity [3]: −63%
- SHAQ % improvement in Breathing (median) [3]: 67%
- SHAQ % improvement in VAS Digital Ulcers [3]: 35%
- SHAQ Visual Analogue Scale - Breathing Problems, Change from Baseline, Mean [4]: −0.475
- SHAQ Visual Analogue Scale - Breathing Problems, Change from Baseline, Median [4]: −0.250
- SHAQ Visual Analogue Scale - Breathing Problems, Percent Change from Baseline, Mean [4]: 3.73%
- SHAQ Visual Analogue Scale - Breathing Problems, Percent Change from Baseline, Median [4]: −17.54%
- SHAQ Visual Analogue Scale - Finger Ulcers, Change from Baseline, Mean [4]: −0.933
- SHAQ Visual Analogue Scale - Finger Ulcers, Change from Baseline, Median [4]: 0.000
- SHAQ Visual Analogue Scale - Finger Ulcers, Percent Change from Baseline, Mean [4]: 35.29%
- SHAQ Visual Analogue Scale - Finger Ulcers, Percent Change from Baseline, Median [4]: 35.29%
- SHAQ Visual Analogue Scale - Intestinal Problems, Change from Baseline, Mean [4]: 0.150
- SHAQ Visual Analogue Scale - Intestinal Problems, Change from Baseline, Median [4]: 0.150
- SHAQ Visual Analogue Scale - Intestinal Problems, Percent Change from Baseline, Mean [4]: −10.00%
- SHAQ Visual Analogue Scale - Intestinal Problems, Percent Change from Baseline, Median [4]: 30.00%
- SHAQ Visual Analogue Scale - Overall Disease Severity, Change from Baseline, Mean [4]: −2.000
- SHAQ Visual Analogue Scale - Overall Disease Severity, Change from Baseline, Median [4]: −1.700
- SHAQ Visual Analogue Scale - Overall Disease Severity, Percent Change from Baseline, Mean [4]: −64.20%
- SHAQ Visual Analogue Scale - Overall Disease Severity, Percent Change from Baseline, Median [4]: −64.44%
- SHAQ Visual Analogue Scale - Pain, Change from Baseline, Mean [4]: −0.650
- SHAQ Visual Analogue Scale - Pain, Change from Baseline, Median [4]: −0.650
- SHAQ Visual Analogue Scale - Pain, Percent Change from Baseline, Mean [4]: −34.56%
- SHAQ Visual Analogue Scale - Pain, Percent Change from Baseline, Median [4]: −51.06%
- SHAQ Visual Analogue Scale - Raynaud's, Change from Baseline, Mean [4]: −1.200
- SHAQ Visual Analogue Scale - Raynaud's, Change from Baseline, Median [4]: −1.050
- SHAQ Visual Analogue Scale - Raynaud's, Percent Change from Baseline, Mean [4]: −41.11%
- SHAQ Visual Analogue Scale - Raynaud's, Percent Change from Baseline, Median [4]: −38.67%
- SHAQ Alternative Disability Index: Change from Baseline, Mean [5]: 0.000
- SHAQ Alternative Disability Index: Change from Baseline, Median [5]: −0.063
- SHAQ Alternative Disability Index: In-Clinic Visit (Day 12), Mean [5]: 0.219
- SHAQ Alternative Disability Index: In-Clinic Visit (Day 12), Median [5]: 0.188
- SHAQ Alternative Disability Index: Percent Change from Baseline, Mean [5]: 5.56%
- SHAQ Alternative Disability Index: Percent Change from Baseline, Median [5]: −33.33%
- SHAQ Standard Disability Index: Change from Baseline, Mean [5]: −0.063
- SHAQ Standard Disability Index: Change from Baseline, Median [5]: −0.063
- SHAQ Standard Disability Index: In-Clinic Visit (Day 12), Mean [5]: 0.281
- SHAQ Standard Disability Index: In-Clinic Visit (Day 12), Median [5]: 0.188
- SHAQ Standard Disability Index: Percent Change from Baseline, Mean [5]: −26.67%
- SHAQ Standard Disability Index: Percent Change from Baseline, Median [5]: −33.33%
- SHAQ Visual Analogue Scale - Pain: Change from Baseline, Mean [5]: −0.650
- SHAQ Visual Analogue Scale - Pain: Change from Baseline, Median [5]: −0.650
- SHAQ Visual Analogue Scale - Pain: In-Clinic Visit (Day 12), Mean [5]: 1.875
- SHAQ Visual Analogue Scale - Pain: In-Clinic Visit (Day 12), Median [5]: 1.400
- SHAQ Visual Analogue Scale - Pain: Percent Change from Baseline, Mean [5]: −34.56%
- SHAQ Visual Analogue Scale - Pain: Percent Change from Baseline, Median [5]: −51.06%
- SHAQ Visual Analogue Scale - Breathing Problems, In-Clinic Visit (Day 12), Mean [6]: 0.850
- SHAQ Visual Analogue Scale - Breathing Problems, In-Clinic Visit (Day 12), Median [6]: 0.450
